These results are taken from ChEMBL document CHEMBL3507680, “University of Dundee, Gates Library screen for HepG2 cell viability”.

This series in a line: Human HepG2 cell viability assay in 384 well format. The class given is toxicity, cell-based. Details: dose 125 nL, time 70.5 hour; concentration not given beside the values. The following applies: HepG2 cells, read-out: Inhibition.
With `CN(Cc1ccccc1O)C(=O)Nc1cc(F)cc(N2CCCC2)c1`, the cytotoxicity at 70.5 h is -7.37%.

On to `Cn1nnc(NCc2ccccc2OCc2ccc(Cl)cc2)n1`, for which the cytotoxicity at 70.5 h is 29.2%. In the case of `Cc1nc(CN2CCO[C@@H]3CN(C(=O)NC(C)C)CC[C@@H]3C2)cs1`, the cytotoxicity at 70.5 h is -6.02%. Turning to `Cc1nc(CNC(=O)c2oc3ccccc3c2CN(C)C)oc1C`, the cytotoxicity at 70.5 h was -8.24%. On to `CCn1ccnc1C1CCCN(c2nccc3ccccc23)C1` (stereo not given), for which the cytotoxicity at 70.5 h is -8.19%. As for `COc1ccc(C(=O)N2CCC(Nc3ccc(C)nn3)CC2)c(F)c1`, the cytotoxicity at 70.5 h was -6.97%. For the compound `COc1c(C(=O)N2CCOCC2)cnc2c1c(C)nn2C`, the cytotoxicity at 70.5 h turned out to be 0.987%. The value for `COc1ccc(CNC[C@H]2COCc3nc4cc(F)ccc4n32)cc1` was -14.9%. `COCC(C)NC(=O)c1cn(C(C)(C)C)c2ncccc12` (stereo not given): the cytotoxicity at 70.5 h is -6.59%. `CNc1cc(C(=O)N2CCC3(CC2)Nc2ccccc2NC3=O)ccn1`: the cytotoxicity at 70.5 h is -4.39%. `COc1ccc(C(=O)NCCCOC(C)c2ccccc2)c(OC)c1` (stereo not given): the cytotoxicity at 70.5 h was -11.1%. Take `Cn1ccnc1CN1CCC(F)(F)C2(CCN(c3cnccn3)C2)C1` (stereo not given): the cytotoxicity at 70.5 h amounted to 19.3%.

For the compound `COC(=O)C1CCCCN1Cc1cccc(C(=O)NCc2ccco2)c1` (stereo not given), the cytotoxicity at 70.5 h was -10.4%. Then `CCCc1ccc(S(=O)(=O)NCCNC(=O)c2ccoc2)cc1`, with -6.96%.

In the case of `CCN(Cc1ccccc1)C(=O)c1cc(C2CCCN2C)ccn1` (stereo not given), the cytotoxicity at 70.5 h was 10.8%. Then `Cc1nc(CC(=O)N2CCCCC2c2ccn3ccnc3n2)cs1` (stereo not given), with -12.6%; and `CNC(=O)c1nc2c(s1)CCN(C(=O)c1ccccc1)CC2`, with -9.7%. As to `CCN(Cc1ccoc1)C(C(N)=O)c1cccc(Br)c1` (stereo not given), the cytotoxicity at 70.5 h is -7.25%. Regarding `CC(CCc1ccccc1)N1CCC(C(=O)NCc2ccccc2)CC1` (stereo not given), the cytotoxicity at 70.5 h stood at 0.455%. Take `COc1nc2ccn(CCc3cc(O)nc(C)n3)c(=O)c2cc1C#N`: the cytotoxicity at 70.5 h is -7.61%.

Take `Cc1ccc(-n2cccn2)cc1S(=O)(=O)N1C[C@H](C2CC2)[C@@H](N)C1`: the cytotoxicity at 70.5 h is 11.6%. Take `CS(=O)(=O)c1nccn1CCOc1ccc(F)cc1Cl`: the cytotoxicity at 70.5 h is -2.15%. On to `COC(=O)C1CCN(C(=O)c2cc(Br)ccc2-n2cnnn2)CC1`, for which the cytotoxicity at 70.5 h is -1.5%. Take `CC(O)(CNC(=O)NCCc1ccc2c(c1)CCO2)c1ccsc1` (stereo not given): the cytotoxicity at 70.5 h came out at 1.66%. For `O=C1CCCN1CCCC(=O)N1CCC2(CC1)[C@H](O)C[C@@H]2O`, the cytotoxicity at 70.5 h is -0.254%.

Take `Fc1ccc(CN2CCCC(c3nnc(-c4cnccn4)o3)C2)cc1F` (stereo not given): the cytotoxicity at 70.5 h stood at 0.0269%. The value for `C[C@@H](NCc1cccc(Cl)c1)c1onc(-c2ccccc2)c1C(=O)O` was -3.56%; that for `CCn1cc(CN2CCCC(CO)(CCc3ccccc3)C2)c(C)n1` (stereo not given) was -7.26%; that for `Cc1ccccc1S(=O)(=O)N1CCc2c(ncnc2N(C)C)C1` was 0.46%.

With `c1ccc(CN2CC[C@@H]3O[C@@H](COCCN4CCCC4)CC[C@@H]32)nc1`, the cytotoxicity at 70.5 h was -13.6%. On to `CC(NC(=O)NCCCn1cncn1)c1ccc2c(c1)CC(=O)N2` (stereo not given), for which the cytotoxicity at 70.5 h is -1.37%.

As for `COC(CNC(=O)c1ccc(NC(C)=O)cc1)c1cccc(Cl)c1` (stereo not given), the cytotoxicity at 70.5 h is -5.6%. Consider `COc1ncc(C)cc1NC(=O)COc1ccccc1F`, for which the cytotoxicity at 70.5 h came out at 11.7%.

As for `CC(C)[C@@H]1CN(CCOc2ccc(Cl)cc2)C[C@H]1NS(C)(=O)=O`, the cytotoxicity at 70.5 h was -3.97%. With `CC(C)CN1CCCn2nc(CNC(=O)CCCc3cn[nH]c3)cc2C1`, the cytotoxicity at 70.5 h is -9.85%. Take `Cn1nc(C2CCCNC2)c2c(C(=O)NC3CC3)cc(C3CC3)nc21` (stereo not given): the cytotoxicity at 70.5 h was determined as 13.4%.

With `CCNc1cc2c(nn1)CCN(C(=O)Cc1ccc(C)s1)C2`, the cytotoxicity at 70.5 h was found to be 0.997%. `CC(NC(=O)Cc1ccccc1F)C(=O)N1CCS(=O)(=O)CC1` (stereo not given): the cytotoxicity at 70.5 h is -3.35%. On to `CC(C)c1ccc(OCn2ccc(C(=O)N3CCCC3)n2)cc1`, for which the cytotoxicity at 70.5 h is -4.33%. As to `COCc1ccccc1C(=O)N1CCn2c(nnc2C(C)C)C1`, the cytotoxicity at 70.5 h is -3.21%. Then `c1cncc(-c2nc(C3CC3)ncc2-c2ccnc(N3CCCC3)n2)c1`, with -2.86%; and `CCN1CC(C(=O)NCc2ccc3c(c2)nc(C)n3C)CCC1=O` (stereo not given), with -13.6%. The value for `Cc1cccc(CN2C[C@@H]3COC[C@]3(CNC(=O)c3ccno3)C2)n1` was 7.45%; that for `C=C(C)CN1CCN(Cc2cnc(-c3ccccc3C)nc2)CC1` was 23.9%; that for `COc1cncc(N2CCN(Cc3ccncc3Cl)CC2)n1` was -9.33%. Regarding `COc1ccc(-c2noc(Cn3cc4c(n3)CCC4)n2)c(OC)c1OC`, the cytotoxicity at 70.5 h was -2.31%. Consider `COCC(=O)NC1CC2(CCN(Cc3ccco3)CC2)c2ccccc21` (stereo not given), for which the cytotoxicity at 70.5 h was -12.8%. For the compound `CCc1nccn1-c1cncc(C2CCCN2Cc2ccc(F)cc2)n1` (stereo not given), the cytotoxicity at 70.5 h was 36.1%. For `Cc1nn(C)c(N2CCOCC2)c1CNCC1CCS(=O)(=O)C1` (stereo not given), the cytotoxicity at 70.5 h is -10.2%. Then `O=C(COc1ccccc1NCc1ccc(F)cc1)N1CCOCC1`, with -20.5%; and `CCC1=N[C@@]2(CC[C@@H]3CN(Cc4ccccc4F)C[C@@H]32)C(=O)N1CC`, with -6.42%. As for `Cc1nn(C)c2c(N3CCN(C(=O)C4CCCO4)CC3)ncnc12` (stereo not given), the cytotoxicity at 70.5 h was determined as 1.72%. Then `CS(=O)(=O)NC1CCCN(C(=O)NCc2cccc(F)c2)C1` (stereo not given), with -4.51%; and `Cc1cc(N2CCC(n3cc(CCCO)nn3)CC2)ccn1`, with -9.19%. `Cn1nc(CNC(=O)C2CCCC2)cc1C1CC1`: the cytotoxicity at 70.5 h came out at 38.9%. As for `Cc1ccccc1OCC1CCCN(C(=O)CN(C)C2CCNCC2)C1` (stereo not given), the cytotoxicity at 70.5 h is -4.15%.

In the case of `Cc1nc(CO[C@H]2CN(C(=O)c3ccc[nH]3)[C@@H]3COC[C@H]23)cs1`, the cytotoxicity at 70.5 h was -13%. With `Cn1c(C2CC2)nc2c1CCN(Cc1nc3ccccc3s1)C2`, the cytotoxicity at 70.5 h was found to be 23.2%. For the compound `Cc1cc(C[C@@H]2COC[C@H]2NCc2ccccc2C(F)(F)F)on1`, the cytotoxicity at 70.5 h was -11%. With `C[C@@H]1CN(C(=O)c2ccc(Br)cc2F)CC(C(N)=O)O1` (stereo not given in full), the cytotoxicity at 70.5 h is -4.88%. Consider `CCc1nnsc1C(=O)N1CCCC(n2ccnc2C(C)C)C1` (stereo not given), for which the cytotoxicity at 70.5 h is -5.12%. Consider `COCCN(C)C[C@@H]1CN(C(=O)NC2CCCCC2)C[C@@H]1CO`, for which the cytotoxicity at 70.5 h was -8.61%. The value for `CS(=O)(=O)CCC(=O)NC(Cc1ccccc1)C1CC1` (stereo not given) was -4.37%. Turning to `Cc1c(NC(=O)NC2CCCC2)cccc1C(=O)N1CCSCC1`, the cytotoxicity at 70.5 h was -3.56%. Then `O=C(CC(F)(F)F)N1C[C@H]2CCN[C@H]2C1`, with -2.74%; and `COc1cccc(-c2cc(C(=O)Nc3nc[nH]n3)[nH]n2)c1`, with -11.1%. For the compound `CC(=O)N1CCCN(Cc2csc(C)n2)c2ccccc21`, the cytotoxicity at 70.5 h is -2.52%. For `Cc1nc(-c2cccc(N3CCC(N4CCCC4)CC3)c2)cs1`, the cytotoxicity at 70.5 h came out at 13.8%.

Consider `Cn1cnc2c1CCN(Cc1noc(-c3ccccc3)n1)C2`, for which the cytotoxicity at 70.5 h was -6.44%.

As for `CCOCc1cnc2n1CCN(C(=O)Cc1ccccn1)C2C` (stereo not given), the cytotoxicity at 70.5 h is -5.89%.
